# From PMC8634746 (International Journal of Peptide Research and Therapeutics, 2021)
# Peptide text beside a SMILES is read from it.
# Target: S1-ACE2 complex (Severe acute respiratory syndrome coronavirus 2, UniProt P0DTC2)
# Assay type: binding, human (ACE2); SARS-CoV-2 (S1)
# Conditions: 5 μM peptide; preincubation 3 to 60 min
smiles,measurement,value
CC(C)C[C@H](NC(=O)[C@H](CC(=O)O)NC(=O)[C@H](CCC(=O)O)NC(=O)[C@H](C)NC(=O)[C@H](CCC(=O)O)NC(=O)[C@H](Cc1c[nH]cn1)NC(=O)[C@H](CC(N)=O)NC(=O)[C@H](Cc1ccccc1)NC(=O)[C@H](CCCCN)NC(=O)[C@H](CC(=O)O)NC(=O)[C@H](CC(C)C)NC(=O)[C@H](Cc1ccccc1)NC(=O)[C@@H](NC(=O)[C@H](CCCCN)NC(=O)[C@H](C)NC(=O)[C@@H](N)CCC(N)=O)[C@@H](C)O)C(=O)N[C@@H](Cc1ccccc1)C(=O)N[C@@H](Cc1ccc(O)cc1)C(=O)N[C@@H](CCC(N)=O)C(N)=O (H-QAKTFLDKFNHEAEDLFYQ-NH2),half-life of preincubation-time effect on koff^rel,14 min
